Like-named read-outs stand apart in the source and are kept apart here.
How the values were obtained:
[1] = target: human DGKα (Homo sapiens (Human), UniProt P23743); test: biochemical; conditions: detergent/lipid micelle substrate; read-out: DGKα IC50
Method: (§1) The DGKα and DGKζ reactions were performed using either extruded liposome (DGKα and DGKζ LIPGLO assays) or detergent/lipid micelle substrate (DGKα and DGKζ assays). The reactions were carried out in 50 mM MOPS pH 7.5, 100 mM NaCl, 10 mM MgCl2, 1 μM CaCl2, and 1 mM DTT (assay buffer). The reactions using a detergent/lipid micelle substrate also contained 50 mM octyl B-D-glucopyranoside. […] The lipid substrate concentrations were […], 0.25 mM DAG, and 2.75 mM PC for the extruded liposome reactions.
(§2) The compound inhibition studies were carried out as follows: 50 nL droplets of each test compound (top concentration 10 mM with 11 point, 3-fold dilution series for each compound) solubilized in DMSO were transferred to wells of a white 1536 well plate (Corning 3725). A 5 mL enzyme/substrate solution at 2× final reaction concentration was prepared by combining 2.5 mL 4× enzyme solution (20 nM DGKα or DGKζ (prepared as described below) in assay buffer) and 2.5 mL of either 4× liposome or 4× detergent/lipid micelle solution (compositions described below) and incubated at room temperature for 10 minutes. Next, 1 μL 2× enzyme/substrate solution was added to wells containing the test compound and reactions were initiated with the addition of 1 μL 300 uM ATP. The reactions were allowed to proceed for 1 hr, after which 2 μL Glo Reagent (Promega V9101) was added and incubated for 40 minutes. Next, 4 μL Kinase Detection Reagent was added and incubated for 30 minutes. Luminescence was recorded using an EnVision microplate reader. […] The compounds were evaluated at 11 concentrations to determine IC50.
(§3) The detergent/lipid micelle was prepared by combining 15 g phosphatidylserine (Avanti 840035P) and 1 g diacylglycerol (800811O) and dissolving into 150 mL chloroform in a 2 L round bottom flask. Chloroform was removed under high vacuum by rotary evaporation. The resulting colorless, tacky oil was resuspended in 400 mL 50 mM MOPS pH 7.5, 100 mM NaCl, 20 mM NaF, 10 mM MgCl2, 1 μM CaCl2), 1 mM DTT, and 200 mM octyl glucoside by vigorous mixing. The lipid/detergent solution was split into 5 mL aliquots and stored at −80° C.
(§4) Human DGK-alpha-TVMV-His-pFBgate and human DCK-zeta-transcript variant-2-TVMV-His-pFBgate baculovirus samples were generated using the Bac-to-Bac baculovirus expression system (Invitrogen) according to the manufacturer's protocol. The DNA used for expression of DGK-alpha and DGK-zeta have SEQ ID NOs: 1 and 3, respectively. Baculovirus amplification was achieved using infected Sf9 cells at 1:1500 virus/cell ratios, and grown for 65 hours at 27° C. post-transfection.
(§5) The expression scale up for each protein was carried out in the Cellbag 50 L WAVE-Bioreactor System 20/50 from GE Healthcare Bioscience. 12 L of 2×10^6 cells/mL Sf9 cells (Expression System, Davis, Calif.) grown in ESF921 insect medium (Expression System) were infected with virus stock at 1:200 virus/cell ratios, and grown for 66-68 hours at 27° C. post-infection. The infected cell culture was harvested by centrifugation at 2000 rpm for 20 min 4° C. in a SORVALL® RC12BP centrifuge. The cell pellets were stored at −70° C. until purification.
(§6) Full length human DGKα and DGKζ, each expressed containing a TVMV-cleavable C-terminal Hexa-His tag sequence (SEQ ID NOs: 2 and 4, respectively) and produced as described above, were purified from Sf) baculovirus-infected insect cell paste. The cells were lysed using nitrogen cavitation method with a nitrogen bomb (Parr Instruments), and the lysates were clarified by centrifugation. […] The three steps column chromatography included nickel affinity resin capture (i.e. HisTrap FF crude, GE Healthcare), followed by size exclusion chromatography (i.e. HiLoad 26/600 Superdex 200 prep grade, GE Healthcare for DGK-alpha, and HiPrep 26/600 Sephacryl S 300_HR, GE Healthcare for DGK-zeta).

[2] = target: human DGKζ (Homo sapiens (Human), UniProt Q13574); test: DGKζ assay (detergent/lipid micelle substrate); assay type: biochemical
Method: as §1, §2, §3, §4, §5, §6

[3] = tested on: pre-activated CD4 T cells and Raji cells; test: Raji CD4 T Cell IL2 Assay; assay type: cell-based
[4] = detergent/lipid micelle substrate, read-out: DGKζ IC50
[5] = DGKζ IC50, detergent/lipid micelle substrate

Chain of human DGKζ (Q13574 other isoform, or with tags, fused parts or gaps): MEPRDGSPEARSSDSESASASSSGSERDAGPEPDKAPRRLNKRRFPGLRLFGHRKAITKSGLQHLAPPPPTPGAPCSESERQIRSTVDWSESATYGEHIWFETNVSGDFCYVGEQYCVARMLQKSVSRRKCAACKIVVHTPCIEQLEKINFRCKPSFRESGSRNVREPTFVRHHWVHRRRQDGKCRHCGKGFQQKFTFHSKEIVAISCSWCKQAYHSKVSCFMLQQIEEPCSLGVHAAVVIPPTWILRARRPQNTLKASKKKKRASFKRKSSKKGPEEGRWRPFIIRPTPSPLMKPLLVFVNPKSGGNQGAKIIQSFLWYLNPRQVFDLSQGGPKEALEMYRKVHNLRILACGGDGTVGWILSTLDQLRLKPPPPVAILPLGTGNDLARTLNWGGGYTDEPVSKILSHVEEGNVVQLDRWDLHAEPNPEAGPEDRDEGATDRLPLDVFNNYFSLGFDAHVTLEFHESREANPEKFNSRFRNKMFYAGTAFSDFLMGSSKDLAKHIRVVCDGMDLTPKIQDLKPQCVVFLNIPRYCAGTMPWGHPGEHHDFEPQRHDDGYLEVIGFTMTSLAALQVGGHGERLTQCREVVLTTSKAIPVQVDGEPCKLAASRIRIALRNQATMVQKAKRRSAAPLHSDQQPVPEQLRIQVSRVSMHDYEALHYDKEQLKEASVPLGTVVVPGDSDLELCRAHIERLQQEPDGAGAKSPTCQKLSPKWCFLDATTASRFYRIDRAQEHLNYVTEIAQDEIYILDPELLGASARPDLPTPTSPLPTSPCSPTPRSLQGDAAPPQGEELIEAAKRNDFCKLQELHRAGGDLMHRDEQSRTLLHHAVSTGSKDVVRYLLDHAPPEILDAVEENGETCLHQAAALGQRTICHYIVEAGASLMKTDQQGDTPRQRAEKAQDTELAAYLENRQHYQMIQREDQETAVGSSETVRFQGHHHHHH
Chain of human DGKα (P23743 other isoform, or with tags, fused parts or gaps): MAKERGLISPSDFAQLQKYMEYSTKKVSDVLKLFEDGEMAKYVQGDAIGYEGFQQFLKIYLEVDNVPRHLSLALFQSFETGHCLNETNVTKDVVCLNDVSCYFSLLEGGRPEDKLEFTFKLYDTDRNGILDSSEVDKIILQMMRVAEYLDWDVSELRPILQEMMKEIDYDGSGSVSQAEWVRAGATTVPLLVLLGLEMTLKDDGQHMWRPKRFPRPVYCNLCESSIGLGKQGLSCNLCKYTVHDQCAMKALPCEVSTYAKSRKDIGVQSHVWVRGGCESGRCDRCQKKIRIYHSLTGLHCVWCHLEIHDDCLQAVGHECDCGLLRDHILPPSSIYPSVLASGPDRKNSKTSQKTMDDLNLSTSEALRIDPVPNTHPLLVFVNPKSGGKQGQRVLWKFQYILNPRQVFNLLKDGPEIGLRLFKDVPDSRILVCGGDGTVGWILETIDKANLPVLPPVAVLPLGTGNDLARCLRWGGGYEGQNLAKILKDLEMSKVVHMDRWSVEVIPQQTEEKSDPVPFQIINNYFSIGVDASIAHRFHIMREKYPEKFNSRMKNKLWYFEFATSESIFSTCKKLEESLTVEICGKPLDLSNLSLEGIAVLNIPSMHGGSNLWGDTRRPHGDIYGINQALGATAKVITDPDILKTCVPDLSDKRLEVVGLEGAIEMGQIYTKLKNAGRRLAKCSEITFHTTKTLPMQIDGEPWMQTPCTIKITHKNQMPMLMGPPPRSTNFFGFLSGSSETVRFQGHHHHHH

## COc1cc(F)ccc1C(c1ccc(F)cc1)N1CCN(c2c([N+](=O)[O-])c(=O)n(C)c3ccc(Br)nc23)CC1 (single isomer, unassigned) [Example 58, 6-bromo-4-(4-((4-fluoro-2-methoxyphenyl)(4-fluorophenyl)methyl)piperazin-1-yl)-1-methyl-3-nitro-1,5-naphthyridin-2(1H)-one]
[1]
  IC50: 250 nM
[2]; [4]
  IC50: 19000 nM
[3]
  IC50: 28 nM

## COc1cccc(C)c1C(c1ccc(F)cc1)N1CCN(c2c([N+](=O)[O-])c(=O)n(C)c3ccc(Br)nc23)CC1 (single isomer, unassigned) [Example 60, 6-bromo-4-(4-((4-fluorophenyl)(2-methoxy-6-methylphenyl)methyl)piperazin-1-yl)-1-methyl-3-nitro-1,5-naphthyridin-2(1H)-one]
[1]
  IC50: 32000 nM
[2]; [4]
  IC50: > 240000 nM
[3]
  IC50: 1600 nM

## COc1cccc(C)c1C(c1ccc(F)cc1)N1CCN(c2c([N+](=O)[O-])c(=O)n(C)c3ccc(Br)nc23)CC1 (single isomer, unassigned) [Example 61, 6-bromo-4-(4-((4-fluorophenyl)(2-methoxy-6-methylphenyl)methyl)piperazin-1-yl)-1-methyl-3-nitro-1,5-naphthyridin-2(1H)-one]
[1]
  IC50: 4400 nM
[2]; [4]
  IC50: 2200 nM
[3]
  IC50: 56 nM

## Cn1c(=O)c([N+](=O)[O-])c(N2CCN(C(c3ccc(F)cc3)c3cccc(F)c3O)CC2)c2nc(Br)ccc21 (single isomer, unassigned) [Example 75, 6-bromo-4-(4-((3-fluoro-2-hydroxyphenyl)(4-fluorophenyl)methyl)piperazin-1-yl)-1-methyl-3-nitro-1,5-naphthyridin-2(1H)-one]
[1]
  IC50: 2600 nM
[2]; [5]
  IC50: 130000 nM
[3]
  IC50: 140 nM

## Cn1c(=O)c([N+](=O)[O-])c(N2CCN(C(c3ccc(F)cc3)c3cccc(F)c3O)CC2)c2nc(Br)ccc21 (single isomer, unassigned) [Example 76, 6-bromo-4-(4-((3-fluoro-2-hydroxyphenyl)(4-fluorophenyl)methyl)piperazin-1-yl)-1-methyl-3-nitro-1,5-naphthyridin-2(1H)-one]
[1]
  IC50: 5500 nM
[2]; [5]
  IC50: 2500 nM
[3]
  IC50: 67 nM

## Cn1c(=O)c([N+](=O)[O-])c(N2CCN(C(c3ccccc3)c3ccccc3O)CC2)c2nc(Br)ccc21 (single isomer, unassigned) [Example 79, 6-bromo-4-(4-((2-hydroxyphenyl)(phenyl)methyl)piperazin-1-yl)-1-methyl-3-nitro-1,5-naphthyridin-2(1H)-one]
[1]
  IC50: 81000 nM
[2]; [4]
  IC50: > 81000 nM
[3]
  IC50: 67 nM

## Cc1cccc(C(c2ccc(F)cc2)N2CCN(c3c([N+](=O)[O-])c(=O)n(C)c4ccc(Br)nc34)CC2)c1O (single isomer, unassigned) [Example 85, 6-bromo-4-(4-((4-fluorophenyl)(2-hydroxy-3-methylphenyl)methyl)piperazin-1-yl)-1-methyl-3-nitro-1,5-naphthyridin-2(1H)-one]
[1]
  IC50: 7600 nM
[2]; [4]
  IC50: 770 nM
[3]; Homo sapiens, Raji
  IC50: 100 nM

## Cc1cccc(OCc2cncc(C#N)c2)c1C(c1ccc(F)cc1)N1CCN(c2c([N+](=O)[O-])c(=O)n(C)c3ccc(Br)nc23)CC1 (single isomer, unassigned) [Example 89, 5-((2-((4-(6-bromo-1-methyl-3-nitro-2-oxo-1,2-dihydro-1,5-naphthyridin-4-yl)piperazin-1-yl)(4-fluorophenyl)methyl)-3-methylphenoxy)methyl)nicotinonitrile]
[1]
  IC50: 41000 nM
[2]; [4]
  IC50: > 240000 nM
[3]
  IC50: 2800 nM

## C=CCOc1cccc(C)c1C(c1ccc(F)cc1)N1CCN(c2c([N+](=O)[O-])c(=O)n(C)c3ccc(Br)nc23)CC1 (single isomer, unassigned) [Example 95, 4-(4-((2-(allyloxy)-6-methylphenyl)(4-fluorophenyl)methyl)piperazin-1-yl)-6-bromo-1-methyl-3-nitro-1,5-naphthyridin-2(1-H)-one]
[1]
  IC50: > 240000 nM
[2]; [4]
  IC50: > 240000 nM
[3]
  IC50: 1100 nM

Reference: patent US11866430B2, “Naphthyridinone compounds useful as T cell activators” (priority 2018, dated 2024)
